Data published in ChEMBL document CHEMBL1136100, “4-Aminopiperidine derivatives as a new class of potent cognition enhancing drugs” (2003).

Key:
Format in all cases: functional
[1] = system: Mus musculus; experiment: Cognition enhancing activity was evaluated by mouse passive-avoidance test using Scopolamine as amnesing drug administered intraperitoneally
[2] = species on record: Mus musculus; experiment: Difference between entry latency of cognition enhancing activity between 2nd day and 1st day
[3] = species on record: Mus musculus; experiment: Cognition enhancing activity was evaluated by mouse passive-avoidance test using Scopolamine as amnesing drug after 1st day
[4] = species on record: Mus musculus; experiment: Cognition enhancing activity was evaluated by mouse passive-avoidance test using Scopolamine as amnesing drug after 2nd day

SMILES	Min effective dose [1] [mg/kg]	Entry latency [2] [s]	Entry latency [3] [s]	Entry latency [4] [s]
CC(=O)N1CCN(S(=O)(=O)c2ccc(F)cc2)CC1	0.01			
CC(=O)N1CCC(NS(=O)(=O)C(C)C)CC1	10	84.2	15.1	99.3
CC(=O)N1CCC(NS(=O)(=O)c2ccc(F)cc2)CC1	0.1	92.6	23.5	126.8
CC(=O)N1CCN(C(=O)c2ccccc2)CC1	10			
CCC(=O)N1CCN(C(=O)c2ccccc2)CC1	0.01			
NC(=O)CN1CCCC1=O	30			
CCC(=O)N1CCC(NS(=O)(=O)C(C)C)CC1	10	82.4	14.5	96.9
CCC(=O)N1CCC(NS(=O)(=O)c2ccc(F)cc2)CC1	10	103	15.6	108.2
CCC(=O)NC1CCN(S(=O)(=O)c2ccc(F)cc2)CC1	0.1	85.8	17.6	103.4
CC(=O)NC1CCN(S(=O)(=O)c2ccc(F)cc2)CC1	0.01	76.1	14.5	90.6
CCC(=O)N1CCC(NC(=O)c2ccccc2)CC1	0.1	103.1	19.7	122.8
CC(=O)NC1CCN(S(=O)(=O)C(C)C)CC1	1	75.4	14.3	89.7
CCC(=O)NC1CCN(S(=O)(=O)C(C)C)CC1	10	88.6	14.2	102.8
CC(=O)NC1CCN(C(=O)c2ccccc2)CC1	10	100.7	12.8	113.5
CCC(=O)NC1CCN(C(=O)c2ccccc2)CC1	0.1	103	18	121
CCC(=O)N1CCN(S(=O)(=O)c2ccc(F)cc2)CC1	0.01			
CN1[C@@H]2C[C@@H](OC(=O)[C@H](CO)c3ccccc3)C[C@H]1[C@@H]1O[C@@H]12 [SCOPOLAMINE]	1.5	27.9		44.5
